Data taken from US20170097349A1 (priority 2010, published 2017).

Tested on: whole blood from TB-reactor and BCG-vaccinated animals (IFN-γ response)
Format: cell-based, cattle

| Substance | recognition in TB-reactor animals not responding to peptides #42 or #55 | further results |
| --- | --- | --- |
| RNIVNMLHGVRDGLVRDANN [compound 20] | recognised in TB-reactor animals that failed to respond to peptides #42 or #55 |  |
| RDVLAAGDFWGGAGSVACQE [peptide #42] |  | responder frequency, TB-reactor animals: 50% |
| Staphylococcal enterotoxin B [SEB, reference compound] |  | IFN-γ response in TB-reactor and BCG-vaccinated animals: all TB-reactor and BCG-vaccinated animals responded |
| SAELPDWLAANRGLAPGGHA [peptide #64] | recognised in TB-reactor animals that failed to respond to peptides #42 or #55 | immunogenicity in BCG-vaccinated animals on re-screen of Sec#1 components: immunogenic in some BCG-vaccinated animals |
| EAEHQAIIRDVLTASDFWGG [compound 29] | recognised in TB-reactor animals that failed to respond to peptides #42 or #55 |  |
| QANLGEAAGTYVAADAAAAS [peptide #55] |  | responder frequency, TB-reactor animals: 36% |
| LGRNFQVIYEQANAHGQKVQ [peptide #33] | recognised in TB-reactor animals that failed to respond to peptides #42 or #55 |  |
